Experimental findings from patent US11306331B2, “Processes for the production of hydroxycinnamic acids using polypeptides having tyrosine ammonia lyase activity” (CysBio ApS, priority 2014, dated 2022) are described below.

The target of experiment [1] is T1, Flavobacterium johnsoniae FjXAL tyrosine ammonia lyase (Protein GI 146298870), SEQ ID NO: 1, His-tagged (N-terminal tag SEQ ID NO: 11) (Flavobacterium johnsoniae, UniProt A5FKY3).
T1 sequence (A5FKY3 1-506): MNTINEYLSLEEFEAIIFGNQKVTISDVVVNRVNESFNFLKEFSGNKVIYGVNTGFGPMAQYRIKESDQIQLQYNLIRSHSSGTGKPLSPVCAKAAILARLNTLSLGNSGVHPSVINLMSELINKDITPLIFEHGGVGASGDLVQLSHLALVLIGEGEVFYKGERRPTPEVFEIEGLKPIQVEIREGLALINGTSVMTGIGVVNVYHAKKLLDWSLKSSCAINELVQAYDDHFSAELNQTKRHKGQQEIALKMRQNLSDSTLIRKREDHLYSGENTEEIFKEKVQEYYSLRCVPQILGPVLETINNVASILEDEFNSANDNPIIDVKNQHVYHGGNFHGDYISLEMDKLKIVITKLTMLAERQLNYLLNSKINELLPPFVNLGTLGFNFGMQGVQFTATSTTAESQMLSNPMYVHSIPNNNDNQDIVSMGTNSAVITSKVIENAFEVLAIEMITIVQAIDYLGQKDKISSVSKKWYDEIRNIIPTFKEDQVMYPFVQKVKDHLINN
Nature of the experiment: In vitro kinetics of purified His-tagged FjXAL (tyrosine/phenylalanine ammonia lyase activity, absorbance at 315/295 nm). The format is biochemical. The protocol: The tyrosine ammonia lyase activity may for instance be determined in accordance to the following method: Enzymatic assays are performed in 200 μL volumes in wells in a UV transparent 96-well plate, by following the increase in absorbance at 315 nm (pHCA) using spectrophotometry or HPLC with UV detection. The reaction mixtures contain 2 μg of purified protein and are initiated by adding 1 mM tyrosine or 6 mM after equilibration to 30° C. The enzymatic activity is calculated as U/g, where U is defined as μmol substrate converted per minute. Negative controls contain no purified protein. Kinetic constants Km and vmax are determined from assays containing 1.56 μM to 200 μM tyrosine. See also Kyndt et al. (2002).
Four of the enzymes were further purified by His-tag purification as follows. A DNA linker (5′ phosphorylated oligonucleotides CBJP559 and CBJP560, Table 5) was inserted in place of the sequence between the NdeI and BgIII site in plasmid pCDFDuet-1. This would result in the addition of the amino acids MAHHHHHHENLYFQ (SEQ ID NO: 11) to the N-terminal end of the polypeptides. […]
Enzymatic assays were performed in 200 μL volumes in wells in a UV transparent 96-well plate, by following the increase in absorbance at 315 nm (pHCA) or 295 nm (CA). […] The enzymatic activity was calculated as U/g, where U is defined as μmol substrate converted per minute.

For experiment [2], the target named is T2, Rhodobacter sphaeroides RsTAL (Protein GI 126464011), His-tagged (N-terminal tag SEQ ID NO: 11) (Cereibacter sphaeroides, UniProt Q3IWB0).
T2 sequence (Q3IWB0 1-523): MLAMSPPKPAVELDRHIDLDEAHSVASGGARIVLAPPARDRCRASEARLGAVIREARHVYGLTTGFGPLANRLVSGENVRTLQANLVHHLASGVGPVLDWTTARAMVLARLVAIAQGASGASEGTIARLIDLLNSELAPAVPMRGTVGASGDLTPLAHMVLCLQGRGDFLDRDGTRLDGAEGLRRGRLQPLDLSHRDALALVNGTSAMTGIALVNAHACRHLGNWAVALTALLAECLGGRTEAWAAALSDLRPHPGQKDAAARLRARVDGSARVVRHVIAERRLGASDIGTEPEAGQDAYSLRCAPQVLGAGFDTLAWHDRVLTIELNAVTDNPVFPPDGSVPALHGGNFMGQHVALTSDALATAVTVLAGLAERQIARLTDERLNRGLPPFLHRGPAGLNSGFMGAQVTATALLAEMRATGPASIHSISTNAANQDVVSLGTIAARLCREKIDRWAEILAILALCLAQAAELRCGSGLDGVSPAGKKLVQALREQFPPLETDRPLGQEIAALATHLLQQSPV
Nature of the experiment: In vitro kinetics of purified His-tagged RsTAL (tyrosine/phenylalanine ammonia lyase activity, absorbance at 315/295 nm).
Experimental: Strains expressing His-tagged versions of the enzymes were grown in LB media overnight at 37° C. and diluted into fresh LB media with 1 mM IPTG and growth was propagated overnight (approximately 18 h) at 30° C. Cells were harvested by centrifugation at 8000 rpm for 8 minutes, and disrupted by shearing into a buffer (50 mM Tris-HCl, 10 mM imidazole, 500 mM NaCl, 10% glycerol, pH 7.5). The homogenate was clarified by centrifugation at 10000 g for 10 min at 4° C., and the supernatant was loaded onto Ni2+-NTA resin column on an Äkta Pure system connected to a F9-C fraction collector (GE). Finally the fractions containing the purified polypeptide was dialyzed overnight against a buffer containing 50 mM Tris-HCl pH 7.5, 150 mM NaCl and 10% glycerol, flash-frozen in liquid nitrogen and stored at −80° C.
Enzymatic assays were performed in 200 μL volumes in wells in a UV transparent 96-well plate, by following the increase in absorbance at 315 nm (pHCA) or 295 nm (CA). The reaction mixtures contained 2 μg of purified protein and were initiated by adding 1 mM tyrosine or 6 mM after equilibration to 30° C. The enzymatic activity was calculated as U/g, where U is defined as μmol substrate converted per minute.

The mark [3] stands for this setting: 30° C, 1.56 μM to 200 μM tyrosine or 193 μM to 25 mM phenylalanine.
Where [4] appears, read: ratio of Kcat/Km for Tyr over Phe.

In the case of `N[C@@H](Cc1ccc(O)cc1)C(=O)O` [Tyr, tyrosine], the results for the Kcat in experiment [1] (setting [3]) and in experiment [2] (setting [3]) were 0.0212 s⁻¹ and 0.173 s⁻¹, respectively. Besides, the TAL/PAL is given as 3000 in experiment [1] (setting [4]) and 125 in experiment [2] (setting [4]).
